{"source": "patent US20120046329A1", "about": "“MODULATORS OF NOD1 AND NOD2 SIGNALING, METHODS OF IDENTIFYING MODULATORS OF NOD1 AND NOD2 SIGNALING, AND USES THEREOF” (Sanford-Burnham Medical Research Institute, priority 2010, published 2012)", "key": {"[1]": {"test": "In vivo RACE assay (pharmacokinetics, IP dosing)", "design": "species or system wild type mice", "settings": "mice", "from_the_text": "In vivo RACE assay data was obtained for compound 1:\nin conjunction with quantitative bioanalytical analysis to test its pharmacokinetics in wild type mice. […]"}, "inflammasome": {"test_system": "inflammasome", "test": "IL-1β secretion ELISA in RAW264.7 cells, inflammasome activators", "assay_type": "cell-based, mouse", "settings": "RAW264.7, 5 μM", "from_the_text": "Supernatants were collected after either 2 hrs (Salmonella infection) or 4 hrs (all others) and IL-1β levels were quantified by ELISA (mean+SD; n=3).\nMany NLRs form complexes with caspase-1, creating so-called “inflammasomes” responsible for proteolytic processing of inflammatory cytokine interleukin 1-beta (IL-1β). […] (FIGS. 1D and 1G), indicating a lack of promiscuity towards other NLRs.\nELISA: For IL-8 ELISA, MCF7 cells stably expressing His6-FLAG-tagged NOD1 or NOD2 were produced by lentivirus infection. Cells were cultured up to 90% confluency. Assays were initiated using 5,000 cells per well (in 100 μl volume) of a 96-well transparent culture plate. […] Supernatants were collected into a new 96-well plate and stored at −80° C. IL-8 levels were measured using a human IL-8 ELISA (BD OptEIA™ Human IL-8 ELISA Set, BD Biosciences). For IL-1β ELISA, assays were initiated using 50,000 RAW264.7 cells per well (in 100 μl of Opti-Mem medium, Invitrogen) of a 96-well transparent culture plate. Cell treatments were performed as indicated. IL-1β levels were measured using mouse IL-1 beta ELISA Ready-Set-Go!™ Kit (E-Biosciences)."}, "[2]": {"test_system": "Fa2N-4 immortalized human hepatocytes", "test": "Toxicity towards Fa2N-4 immortalized human hepatocytes", "assay_type": "cell-based"}, "TNF-α induced NF-κB": {"test_system": "TNF-α induced NF-κB", "test": "TNF-α-induced NF-κB luciferase reporter counterscreen, HEK293T", "assay_type": "cell-based, human"}, "NOD1": {"biological_target": "T1, NOD1 (Homo sapiens, UniProt Q9Y239)", "T1 sequence (Q9Y239 1-953)": "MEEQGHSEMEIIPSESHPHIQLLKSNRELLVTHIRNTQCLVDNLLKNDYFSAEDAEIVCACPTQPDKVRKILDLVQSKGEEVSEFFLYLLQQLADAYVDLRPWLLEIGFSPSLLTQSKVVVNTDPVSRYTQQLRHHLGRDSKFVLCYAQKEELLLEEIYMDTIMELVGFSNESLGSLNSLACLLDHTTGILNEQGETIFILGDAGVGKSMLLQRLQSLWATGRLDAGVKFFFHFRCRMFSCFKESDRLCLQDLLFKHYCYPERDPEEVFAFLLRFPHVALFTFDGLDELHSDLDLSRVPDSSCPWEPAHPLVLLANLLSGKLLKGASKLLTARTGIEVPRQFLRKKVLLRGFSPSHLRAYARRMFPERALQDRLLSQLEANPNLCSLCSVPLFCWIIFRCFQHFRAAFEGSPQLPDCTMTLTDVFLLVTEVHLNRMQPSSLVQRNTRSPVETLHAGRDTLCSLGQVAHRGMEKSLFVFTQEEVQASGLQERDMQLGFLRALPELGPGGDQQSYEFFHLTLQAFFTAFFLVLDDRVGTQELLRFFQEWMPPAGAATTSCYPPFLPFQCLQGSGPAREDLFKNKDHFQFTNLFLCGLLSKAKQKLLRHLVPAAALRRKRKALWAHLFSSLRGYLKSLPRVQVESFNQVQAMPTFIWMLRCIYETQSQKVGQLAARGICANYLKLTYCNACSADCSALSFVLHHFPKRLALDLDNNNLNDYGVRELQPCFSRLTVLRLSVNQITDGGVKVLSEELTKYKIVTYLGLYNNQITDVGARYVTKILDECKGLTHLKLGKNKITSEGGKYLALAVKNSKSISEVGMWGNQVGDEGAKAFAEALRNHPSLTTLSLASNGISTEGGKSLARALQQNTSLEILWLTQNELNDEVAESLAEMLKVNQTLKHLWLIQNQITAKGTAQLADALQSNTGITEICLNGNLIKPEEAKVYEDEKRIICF", "test": "γ-tri-DAP-induced IkBα mRNA expression", "assay_type": "cell-based", "method": "RNA analysis: Total RNA was extracted using RNeasy™ Plus Mini kit (Qiagen). After isolation, 1-5 μg total RNA was reverse-transcribed, in the presence of oligo (dT) primer, according to the manufacturer (SuperScript First-Strand Synthesis, Invitrogen). First strand cDNA was diluted and analyzed in triplicates with gene-specific primers by realtime PCR, using a Stratagene Mx3000p sequence detection system with SYBR Green PCR master mix (Applied Biosystems). The gene expression (fold induction) was normalized with the respective levels of beta-actin or cyclophilin (CPH) expression. For TaqMan™-based quantitative PCR, assays were performed using TaqMan™ Gene Expression Master Mix with validated primers and probes (TNF: Hs00174128_ml, IL1B: Hs01555410_ml, IL6: Hs00985639_ml, NOD1: Hs00196075_ml, ACTB: hs999999903_ml) from Applied Biosystems."}, "NOD2 [3]": {"biological_target": "T2, NOD2 (Homo sapiens, UniProt Q9HC29)", "T2 sequence (Q9HC29 whole entry)": "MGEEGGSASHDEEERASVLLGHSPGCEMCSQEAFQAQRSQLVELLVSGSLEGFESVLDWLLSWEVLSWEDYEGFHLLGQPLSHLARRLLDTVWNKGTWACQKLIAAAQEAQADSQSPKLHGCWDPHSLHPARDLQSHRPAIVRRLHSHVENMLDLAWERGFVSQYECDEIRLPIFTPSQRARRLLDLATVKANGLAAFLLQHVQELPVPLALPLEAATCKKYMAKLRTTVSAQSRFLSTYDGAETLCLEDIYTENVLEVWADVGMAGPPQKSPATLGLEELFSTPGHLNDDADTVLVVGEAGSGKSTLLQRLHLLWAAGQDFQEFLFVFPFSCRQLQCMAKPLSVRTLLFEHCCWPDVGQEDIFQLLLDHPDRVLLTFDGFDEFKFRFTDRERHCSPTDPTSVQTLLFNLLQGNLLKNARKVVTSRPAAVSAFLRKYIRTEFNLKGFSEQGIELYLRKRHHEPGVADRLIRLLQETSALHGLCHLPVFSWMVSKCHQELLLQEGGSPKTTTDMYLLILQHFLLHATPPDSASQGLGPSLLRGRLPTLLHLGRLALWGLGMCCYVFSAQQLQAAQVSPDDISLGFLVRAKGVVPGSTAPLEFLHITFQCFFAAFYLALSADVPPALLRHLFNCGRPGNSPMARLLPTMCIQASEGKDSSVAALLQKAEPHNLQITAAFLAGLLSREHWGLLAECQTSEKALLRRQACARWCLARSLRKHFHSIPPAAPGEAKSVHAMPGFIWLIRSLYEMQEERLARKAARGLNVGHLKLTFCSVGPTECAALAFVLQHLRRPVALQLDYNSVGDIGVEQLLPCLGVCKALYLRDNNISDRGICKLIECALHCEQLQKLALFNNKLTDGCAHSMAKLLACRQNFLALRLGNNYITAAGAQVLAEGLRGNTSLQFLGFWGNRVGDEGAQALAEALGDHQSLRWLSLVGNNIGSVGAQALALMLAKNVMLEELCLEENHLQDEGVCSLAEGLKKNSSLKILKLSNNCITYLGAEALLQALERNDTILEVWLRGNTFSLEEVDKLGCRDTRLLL", "test": "MDP-induced IL-8 secretion in MCF-7/NOD2 cells", "settings": "MCF-7 cells, ELISA"}, "[4]": {"test": "Plasma protein binding, human", "assay_type": "in vitro ADME", "settings": "for Plasma Protein Binding (% Bound): Human"}, "NOD2 [5]": {"biological_target": "T2, NOD2", "test": "Subcellular fractionation of MCF-7 cells expressing tagged NOD2", "settings": "MCF-7, 5 μM, 24 h", "method": "After 24 h treatment, cytosolic and membrane subcellular fractions were isolated and analyzed (10 μg protein) by immunoblotting using antibodies specific for α-tubulin (cytosolic marker), pan-cadherin (plasma membrane marker), NOD2 (using anti-FLAG antibodies) and RIP2.\nFor subcellular fractionation, cytosolic fractions were obtained by extensive resuspension of cell pellets into buffer A (10 mM Hepes 7.5, 1.5 mM MgCl2, 10 mM KCl, 0.5 mM DTT and protease inhibitors). […] Immunoblotting was performed using respective antibodies. Total lysates (50-60 μg) and subcellular fractions (10 μg) were also immunoblotted after protein quantification (Bio-Rad Protein Assay)."}, "Plasma stability, human": {"test": "Plasma stability, human", "assay_type": "in vitro ADME"}, "[6]": {"test_system": "noncanonical NF-κB activation induced by BAFF", "test": "NF-κB luciferase in 697 pre-B leukemia cells, BAFF", "settings": "697 cells, 10 μM", "method": "Luciferase activity was measured 24 h later (mean±SD; n=3).\nGene reporter assays: HEK293T or 697 cells containing integrated 5×NFκB-driven luciferase reporter gene were seeded into 96-well plates at 10^4 to 10^5 cells per well, and treated with respective inducers for 16 to 24 hours. […] The next day, cells were transfected with 50 ng pNF-κB-LUC (Clontech) and 5 ng Renilla luciferase gene driven by a constitutive TK promoter (pRL-TK; Promega) along with indicated plasmids. After 24 h of transfection in some experiments, cells were stimulated with various agents for 24 h or directly lysed and luciferase activities were assayed using the Dual Luciferase kit (Promega). The results for firefly luciferase activity were normalized to renilla luciferase activity. […] The mean results were obtained from triplicates."}, "TLR1, 2, 4, 5, 6 and 8": {"test_system": "TLR1, 2, 4, 5, 6 and 8", "test": "NF-κB SEAP reporter in PMA-differentiated THP.1 macrophages, TLR agonists", "assay_type": "cell-based, human", "settings": "5 μM, 24 h", "method": "After 24 h incubation, SLAP activity in culture supernatants was measured, expressing data as percentage relative to treatment with inducer only (indicated as 100%; mean±SEM, n=2).\nHuman myelomonocytic THP-1 cells containing a NF-κB/AP-1-inducible reporter gene encoding secreted alkaline phosphatase (SEAP) were employed for convenient monitoring of NF-κB activity.\nTHP.1-Blue™ monocytic cells (Invivogen), stably containing NF-κB-driven secreted alkaline phosphatase reporter (SEAP), were plated and further treated as indicated. Stimulation was accessed colorimetrically measuring SEAP secreted into culture supernatants (QUANTI-Blue'm, Invivogen), using SpectraMax 190 plate reader (Molecular Devices)."}, "[7]": {"biological_target": "NOD1 association with RIP2, Bid, or SGT-1 (Homo sapiens, UniProt Q9Y239)", "sequence (O43353 whole entry partner, one chain of several)": "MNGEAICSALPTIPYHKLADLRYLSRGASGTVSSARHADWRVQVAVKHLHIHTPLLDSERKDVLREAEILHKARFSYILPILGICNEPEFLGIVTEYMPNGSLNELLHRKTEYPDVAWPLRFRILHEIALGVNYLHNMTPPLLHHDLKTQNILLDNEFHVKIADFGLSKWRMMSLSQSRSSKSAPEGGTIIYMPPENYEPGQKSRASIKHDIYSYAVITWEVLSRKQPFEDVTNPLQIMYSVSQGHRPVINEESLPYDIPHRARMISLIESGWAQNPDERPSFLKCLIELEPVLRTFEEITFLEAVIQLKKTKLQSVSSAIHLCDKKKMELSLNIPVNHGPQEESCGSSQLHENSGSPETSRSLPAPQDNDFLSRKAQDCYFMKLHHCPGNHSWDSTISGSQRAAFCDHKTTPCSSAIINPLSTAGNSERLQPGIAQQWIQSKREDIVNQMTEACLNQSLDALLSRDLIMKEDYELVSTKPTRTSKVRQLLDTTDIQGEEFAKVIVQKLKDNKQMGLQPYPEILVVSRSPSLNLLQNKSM", "test": "Co-immunoprecipitation of NOD1 with interacting proteins, HEK 293T", "assay_type": "cell-based", "settings": "over-expressing conditions, 5 μM"}, "[8]": {"test_system": "interferon response stimuli (RIG-I/MDA-5, IRF3)", "test": "ISRE-driven luciferase reporter in HEK293T, poly(I:C), poly(dA:dT), Sendai virus", "settings": "5 μM"}, "[9]": {"test": "Solubility in aqueous buffer"}, "NOD2 [10]": {"biological_target": "T2, NOD2", "test": "MDP-stimulated (NOD2-dependent) NF-κB reporter assay", "settings": "reporter cell lines with low and overexpressed NOD2"}}, "note": "Read-outs that look alike come from different tables or passages of the source.", "data": [{"smiles": "Cc1ccc(S(=O)(=O)n2c(N)nc3ccccc32)cc1", "note": "[Compound 1]", "values": [{"measurement": "Tolerability", "setting": "[1]; IP", "result": "well tolerated"}, {"measurement": "Concentration (uM) 20 min", "setting": "[1]; IP 15 mg/kg", "result": "1.58 ± 0.06", "unit": "µM"}, {"measurement": "Concentration (uM) 120 min", "setting": "[1]; IP 15 mg/kg", "result": "0.12 ± 0.05", "unit": "µM"}, {"measurement": "Compound exposure (in words)", "setting": "[1]; IP 30 mg/kg and 15 mg/kg, T=20 min", "result": "significant compound exposure"}, {"measurement": "Concentration (uM) 20 min", "setting": "[1]; IP 30 mg/kg", "result": "5.24 ± 0.62", "unit": "µM"}, {"measurement": "Concentration (uM) 120 min", "setting": "[1]; IP 30 mg/kg", "result": "0.54 ± 0.04", "unit": "µM"}, {"measurement": "Effect on IL-1β secretion induced by inflammasome activators", "setting": "inflammasome", "result": "did not inhibit"}, {"measurement": "Toxicity (LD50, μM)", "setting": "[2]", "result": "> 50", "unit": "µM"}, {"measurement": "Toxicity (LD50, μM)", "setting": "[2]; listed as MLS-0350096", "result": ">50", "unit": "µM"}, {"measurement": "IC50", "setting": "TNF-α induced NF-κB; Homo sapiens, HEK-293T, read-out: TNF-α IC50(μM)", "result": "> 20", "unit": "µM"}, {"measurement": "Activity on TNFα induced NF-κB (in words)", "setting": "TNF-α induced NF-κB; reporter assay, listed as CID1088438", "result": "selective"}, {"measurement": "γ-tri-DAP-induced expression of IkBα at the mRNA level", "setting": "NOD1", "result": "inhibited"}, {"measurement": "Activity on MDP induced (NOD2) mediated IL-8 release (in words)", "setting": "NOD2 [3]", "result": "inactivity"}, {"measurement": "Plasma Protein Binding (% Bound)", "setting": "[4]; 1 μM", "result": 97.74, "unit": "% Bound"}, {"measurement": "Plasma Protein Binding (% Bound)", "setting": "[4]; 10 μM", "result": 97.45, "unit": "% Bound"}, {"measurement": "Plasma protein binding (in words)", "setting": "[4]; human", "result": "high"}, {"measurement": "NOD2 compartmentalization", "setting": "NOD2 [5]", "result": "No changes"}, {"measurement": "Plasma Stability (% Remaining at 3 hrs)", "setting": "Plasma stability, human; Human, 3 hrs", "result": "100/100 % Remaining"}, {"measurement": "Stability in plasma (in words)", "setting": "Plasma stability, human; human", "result": "high"}, {"measurement": "Effect on NF-κB activation induced by BAFF", "setting": "[6]", "result": "not inhibited"}, {"measurement": "Effect on NF-κB-inducible SEAP activity induced by TLR agonists", "setting": "TLR1, 2, 4, 5, 6 and 8", "result": "No inhibitory effects"}, {"measurement": "Interference with NOD1 association with RIP2, Bid, or SGT-1", "setting": "[7]", "result": "did not interfere"}, {"measurement": "Effect on ISRE-driven reporter gene activity induced by other interferon response stimuli", "setting": "[8]", "result": "no inhibition"}, {"measurement": "Solubility", "setting": "[9]; aqueous buffer, pH 6.2, aqueous buffer", "result": 1.7, "unit": "µg/mL"}, {"measurement": "Solubility", "setting": "[9]; pH 5.0, aqueous buffer", "result": 2.0, "unit": "µg/mL"}, {"measurement": "Solubility", "setting": "[9]; pH 7.4, aqueous buffer", "result": 2.0, "unit": "µg/mL"}, {"measurement": "Solubility (in words)", "setting": "[9]; three pH levels", "result": "low"}, {"measurement": "Inhibition of MDP stimulated (NOD2-dependent) signaling", "setting": "NOD2 [10]", "result": "not inhibiting"}, {"measurement": "Permeability", "setting": "Permeability; pH 5.0", "result": 491, "unit": "×10⁻⁶ cm/s"}, {"measurement": "Permeability", "setting": "Permeability; pH 6.2", "result": 562, "unit": "×10⁻⁶ cm/s"}, {"measurement": "Permeability", "setting": "Permeability; pH 7.4", "result": 382, "unit": "×10⁻⁶ cm/s"}, {"measurement": "Permeability (in words)", "setting": "Permeability; three pH levels", "result": "high"}]}]}
